Experimental data as given in patent publication US10323078B2, “Isolated peptides and fragments thereof from fibrinogen for use as drugs, particularly in skin inflammatory diseases” (Universite Paris Descartes, priority 2015, dated 2019).

Key:
P. acnes 6919 strain = assay: Adhesion assay, biotinylated P. acnes binding to HaCaT keratinocytes; assay type: cell-based, Propionibacterium acnes; conditions: P. acnes 6919 pre-treated with whole fibrinogen 0.01 to 0.5 mM, 1 h at 37° C.
Description: FIG. 12: Dose-dependent inhibition of P. acnes binding to keratinocytes. Biotinylated P. acnes 6919 strain at concentrations adjusted to 0.1 of absorbance at 600 nm was pre-treated with whole human (dark gray bar) and bovine (light gray bar) fibrinogen at the concentrations ranging from 0.01 to 0.5 mM and incubated 1 h at 37° C. with the human HaCaT keratinocyte cell line. After removal of unbound bacteria, adhesion activity was detected at 410 nm. Data are means±S.D. of three separate experiments. Statistical significance is indicated by * (P<0.05), ** (P<0.01), *** (P<0.001), and **** (P<0.0001), respectively.
The bacterial suspension was adjusted at 600 nm to the desired concentration, pretreated with peptides Fg1 and Fg2 at the final concentration ranging from 0.87 to 7 μM for 1 h at 37° C. and deposited on the previously saturated cells with a solution of PBS SVF 2% for 2 h. After incubation for 1 h at 37° C., unbound bacteria are removed by 3 washes with PBS and fixed bacteria are detected by a streptavidin-peroxidase solution of 0.5 μg/ml for 30 min.
Whole P. acnes bacteria are labelled by biotinylation, pre-treated or not with the peptides and contacted with the various cell lines. After removal of the unfixed bacteria, the adhesion activity was measured spectrophotometrically by using the streptavidin-peroxidase conjugate and a chromogenic substrate. […]

[1] = tested on: monocytes and fibroblasts; assay: TNF-α production by cells stimulated with P. acnes, overall statement; assay type: cell-based, human; conditions: the 3 bacterial tested strains
Description: For experiences of stimulation with P. acnes, cells were incubated with the P. acnes suspension adjusted at the appropriate concentration, pre-treated for 1 h at 37° C. or not with fibrinogen recombinant peptides Fg1 and Fg2 at the concentrations 0.87, 1.75, 3.5 or 7 μM for the desired period of time at 37° C. in 5% CO2.
Human IL-1ß, IL-8, IL-12, hBD-2, and TNF-α protein concentration was measured in the supernatants of stimulated cells using various ELISA Set kits (Ready-Set-Go kit from eBioscience for acne experiments, and for psoriasis experiments the Duo set IL-8 kit from R&D Systems and the BD-2 Human Development (hBD-2) from Peprotech) according to the manufacturer's instructions. We used serial dilutions of recombinant human IL-1ß, IL-8, IL-12 and TNF-α for standard curve. The optical density was determined at 450 nm at a wavelength correction of 540 nm.
To assess the efficacy of Fg1 recombinant peptide, the production of O2^∘− and H2O2 by HaCaT cells NHDK, THP-1, MRC5 and HDF stimulated by pretreated P. acnes strains 6919, RON and PIE was measured. The amount of ROS produced was compared to that produced by the stimulated cells with untreated bacteria. Production baseline was obtained by measuring ROS on unstimulated cells. The production of IL-1ß, IL-8, IL-12 and TNF-α was also measured in all conditions cited above. […]

Molecule	Inhibition of adhesion of P. acnes to keratinocytes (P. acnes 6919 strain)	Decrease of the production of TNF-α [1]
human fibrinogen: purified commercial human fibrinogen (Sigma), glycoprotein hexamer of Aα, Bß and γ chains	able to inhibit the adhesion	
MKRMVSWSFHKLKTMKHLLLLLLCVFLVKSQGVNDNEEGFFSARGHRPLDKKREEAPSLRPAPPPISGGGYRARPAKAAATQKKVERKAPDAGGCLHADPDLGVLC (protein, GST fusion; fragment Fg1, fragment of Bß chain of human fibrinogen having 106 amino acids; recombinant GST-fused peptide expressed in E. coli) MKRMVSWSFHKLKTMKHLLLLLLCVFLVKSQGVNDNEEGFFSARGHRPLDKKREEAPSLRPAPPPISGGGRARPAKAAATQKKVERKAPDAGGCLHADPDLGVLCMKRMVSWSFHKLKTMKHLLLLLLCVFLVKSQGVNDNEEGFFSARGHRPLDKKREEAPSLRPAPPPISGGGYRARPAKAAATQKKVERKAPDAGGCLHADPDLGVLC		dose-response effect on the decrease of the production of TNF-α
